“Also recorded” adds a separate entry of the source.
Legend:
[1] = system: TET3; assay: TET3 protein stability (cycloheximide time course) in GT1-7 cells; format: cell-based; details: 10 μM, with cycloheximide; mouse neuronal cells
Method: For Bobcat339 treatment (FIG. 15A and FIG. 15B), GT1-7 cells grown in 24-well plates at 2×10^5 cells/well were incubated with vehicle or Bobcat339 at a final concentration of 10 μM for 6 h, followed by RNA and protein extractions. For TET3 protein stability assay (FIG. 15B), GT1-7 cells in 24-well plates at 2×10^5 cells/well were incubated with vehicle or Bobcat339 at a final concentration of 10 μM for 3 hours, followed by addition of cycloheximide (CHX, Cell Signaling, 2112) at a final concentration of […] in the presence of 10 μM of Bobcat339. Proteins were harvested at 0, 1, 2, and 3 hours after addition of CHX. For TET3 expression restoration experiments (FIG. 15C and FIG. 15D), GT1-7 or SH-SY5Y cells seeded in 24-well plates at 2×10^5 cells/well were infected with Ad-GFP or Ad-TET3 at 4000 gc/cell. Following 16 h of infection, vehicle or Bobcat339 were added at a final concentration of 10 μM. Protein and RNA were isolated 48 h later and analyzed.

[2] = system: Agrp promoter; assay: ChIP-qPCR at the Agrp promoter in mouse ARC; format: in vivo; details: leptin 5 mg/kg
Method: To prepare antibodies, 5 μl (packed volume) of ChIP grade Dynabeads Protein G (Invitrogen, Thermo Scientific, 10004D) were washed twice with 1 ml of binding buffer (0.2% Tween-20 in PBS), followed by incubation on a rotator with 10 μg of rabbit polyclonal anti-TET3 (Active Motif, 61395) (FIG. 12A), anti-STAT3 (Proteintech, 10253-2-AP), anti-NCOR1 (Cell Signaling, 5948S) (Hainberger et al., 2020, Front Immunol., 11:579), anti-HDAC4 (Active Motif, 40969) (FIG. 12B), anti-H3K9ac (Active Motif, 39137) (validated by the vendor), or preimmune rabbit IgG (as a negative control) in 350 μl of binding buffer at 4 °C overnight (Gao, Y. et al., 2020, Advanced Science, 7:2002518; Hainberger, D. et al., 2020, Frontiers in Immunology, 11:579). Antibody bound beads were washed twice with 1 ml of binding buffer, resuspended in 50 μl of dilution buffer (0.01% SDS, 1.1% Triton X-100, 1.2 mM EDTA, 16.7 mM Tris-HCl at PH 8.0, 167 mM NaCl), and kept on ice until use. To prepare chromatin, freshly isolated ARCs (2 ARCs from one mouse per ChIP, FIG. 6D and FIG. 6I) were washed twice with 1 ml of cold-PBS, followed by cross-linking in 1% paraformaldehyde/PBS on a rotator at room temperature for 15 min. Glycine buffer (150 mM final concentration) was added and incubated in rotation at room temperature for 10 min to quench cross-linking. Cross-linked ARCs were washed twice with PBS and homogenized (5-10 strokes) using a disposable pellet pestle (Fisher Scientific, 12-141-368) in 300 μl of cold cell lysis buffer (50 mM Tris-HCl at PH 8.0, 140 mM NaCl, 1 mM EDTA, 10% glycerol, 0.5% NP-40, 0.25% Triton X-100), followed by incubation at 4 °C for 20 min to lyse the plasma membrane. […]

| Compound | TET3 protein stability [1] | histone acetylation (H3K9ac) at the Agrp promoter [2] | binding of STAT3, TET3, NCOR1, and HDAC4 to the Agrp promoter ([2]; AAV-sgTet3 mice) | binding of STAT3, TET3, NCOR1, and HDAC4 to the Agrp promoter ([2]; control mice) |
| --- | --- | --- | --- | --- |
| Nc1nc(=O)n(-c2cccc(-c3ccccc3)c2)cc1Cl [Bobcat339, 4-Amino-1-[1,1′-biphenyl]-3-yl-5-chloro-2(1H)-pyrimidinone] | induced protein degradation of TET3; also recorded: less stable |  |  |  |
| leptin: adipose hormone; mouse leptin L3772-1MG or human leptin L4146-1MG, Sigma Aldrich |  | reduction was observed in histone acetylation at the Agrp promoter | failed to do so in AAV-sgTet3 injected mice | increased binding of STAT3, TET3, NCOR1, and HDAC4 to the Agrp promoter |
